Test results published in ChEMBL document CHEMBL1201862, “PubChem BioAssay data set” (2004).
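Method: 48-hour compound exposure of cells in 96-well plates, five concentrations, linear interpolation of endpoints. Here, GI50 denotes the concentration required for 50% inhibition of growth.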 Calls of active or inactive are those of the source. Cut-off read from the data, not from the text of the source: active = GI50 up to about 1.1 µM and inactive = higher.

What was measured:
Experiment in all cases: growth of human tumour cells (NCI), 48 h
[1] = tested on: SR
[2] = tested on: HCC 2998
[3] = tested on: U-251
[4] = tested on: UACC-257
[5] = tested on: SK-MEL-5
[6] = tested on: 786-0
[7] = tested on: SW-620
[8] = tested on: OVCAR-8
[9] = tested on: KM12
[10] = tested on: NCI-H226
[11] = tested on: TK-10
[12] = tested on: UACC-62
[13] = tested on: A498
[14] = tested on: SK-MEL-2
[15] = tested on: MOLT-4
[16] = tested on: SF-539
[17] = tested on: HOP-92
[18] = tested on: PC-3

| Compound | GI50 [1] | GI50 [2] | GI50 [3] | GI50 [4] | GI50 [5] | GI50 [6] | GI50 [7] | GI50 [8] | GI50 [9] | GI50 [10] | GI50 [11] | GI50 [12] | GI50 [13] | GI50 [14] | GI50 [15] | GI50 [16] | GI50 [17] | GI50 [18] |
| --- | --- | --- | --- | --- | --- | --- | --- | --- | --- | --- | --- | --- | --- | --- | --- | --- | --- | --- |
| CCN(CC)C(=S)N/N=C(\C)c1ccccc1O | 8.13 µM (inactive) | 13.4 µM (inactive) | 16.9 µM (inactive) | 27 µM (inactive) | 10.7 µM (inactive) | 26.2 µM (inactive) | 22.9 µM (inactive) | 19.5 µM (inactive) | 15.5 µM (inactive) | 20.7 µM (inactive) | 62.1 µM (inactive) | 10.9 µM (inactive) | 20.5 µM (inactive) | 19 µM (inactive) | 8.59 µM (inactive) | 18 µM (inactive) | – | – |
| OCCN(CCO)c1cccc(N(CCO)CCO)c1 | > 100 µM (inactive) | – | > 100 µM (inactive) | > 100 µM (inactive) | > 100 µM (inactive) | > 100 µM (inactive) | > 100 µM (inactive) | > 100 µM (inactive) | > 100 µM (inactive) | – | > 100 µM (inactive) | 72.8 µM (inactive) | > 100 µM (inactive) | > 100 µM (inactive) | > 100 µM (inactive) | – | > 100 µM (inactive) | – |
| O=C(CC1C(=O)Nc2ccccc2[S+]1[O-])Nc1ccc(Cl)cc1 (stereo not drawn) | 32.4 µM (inactive) | 79.6 µM (inactive) | 35.7 µM (inactive) | 69.5 µM (inactive) | – | 39 µM (inactive) | > 100 µM (inactive) | 32.7 µM (inactive) | > 100 µM (inactive) | > 100 µM (inactive) | > 100 µM (inactive) | 37 µM (inactive) | – | > 100 µM (inactive) | 50.2 µM (inactive) | 23.7 µM (inactive) | 29 µM (inactive) | – |
| Cc1ccc2nc3c(C)cc(=O)cc-3sc2c1 | 19.1 µM (inactive) | 26.9 µM (inactive) | 31.8 µM (inactive) | 20.2 µM (inactive) | 15.5 µM (inactive) | 18.7 µM (inactive) | 17.2 µM (inactive) | 22.8 µM (inactive) | 22.9 µM (inactive) | 24.8 µM (inactive) | 22.7 µM (inactive) | 14.1 µM (inactive) | – | 20 µM (inactive) | 12.6 µM (inactive) | 18.9 µM (inactive) | 34.2 µM (inactive) | – |
| COC(=O)NC(=O)c1cn(C2OC(CO)C(O)C2O)c(=O)[nH]c1=O (stereo not drawn) | > 100 µM (inactive) | > 100 µM (inactive) | > 100 µM (inactive) | > 100 µM (inactive) | – | > 100 µM (inactive) | > 100 µM (inactive) | > 100 µM (inactive) | > 100 µM (inactive) | > 100 µM (inactive) | > 100 µM (inactive) | > 100 µM (inactive) | – | > 100 µM (inactive) | > 100 µM (inactive) | > 100 µM (inactive) | > 100 µM (inactive) | – |
| NC(=O)c1ncn(C2OC(CO)C(O)C2O)c1O (stereo not drawn) | 69 µM (inactive) | 56.8 µM (inactive) | > 100 µM (inactive) | – | – | > 100 µM (inactive) | 44.4 µM (inactive) | > 100 µM (inactive) | 46.6 µM (inactive) | 54.6 µM (inactive) | > 100 µM (inactive) | > 100 µM (inactive) | > 100 µM (inactive) | > 100 µM (inactive) | 72.1 µM (inactive) | > 100 µM (inactive) | 46.8 µM (inactive) | – |
| O=C(N/C(=C\c1ccc([N+](=O)[O-])cc1)c1nc2c(O)nc(S)nc2[nH]1)c1ccccc1 | > 100 µM (inactive) | > 100 µM (inactive) | > 100 µM (inactive) | – | > 100 µM (inactive) | > 100 µM (inactive) | > 100 µM (inactive) | > 100 µM (inactive) | > 100 µM (inactive) | – | > 100 µM (inactive) | > 100 µM (inactive) | – | > 100 µM (inactive) | 88.7 µM (inactive) | > 100 µM (inactive) | 43.7 µM (inactive) | – |
| O=c1c2ccccc2c(=O)n2n1-c1cccc(c1)CSSCc1cccc-2c1 | > 10 µM (inactive) | > 10 µM (inactive) | 92 µM (inactive) | > 10 µM (inactive) | > 10 µM (inactive) | 58.3 µM (inactive) | > 10 µM (inactive) | > 10 µM (inactive) | > 10 µM (inactive) | > 10 µM (inactive) | > 10 µM (inactive) | > 10 µM (inactive) | > 10 µM (inactive) | > 10 µM (inactive) | > 10 µM (inactive) | > 10 µM (inactive) | 5.9 µM (inactive) | – |
| N#Cc1c(-c2ccccc2)c(C#N)c(=O)n(NS(=O)(=O)c2ccccc2)c1O | – | > 100 µM (inactive) | > 100 µM (inactive) | > 100 µM (inactive) | > 100 µM (inactive) | > 100 µM (inactive) | > 100 µM (inactive) | > 100 µM (inactive) | > 100 µM (inactive) | > 100 µM (inactive) | > 100 µM (inactive) | > 100 µM (inactive) | > 100 µM (inactive) | > 100 µM (inactive) | > 100 µM (inactive) | > 100 µM (inactive) | > 100 µM (inactive) | > 100 µM (inactive) |
| Nc1ccc(C(=O)N/C(=C\C=C\c2ccco2)c2nc3c4c(ccc3[nH]2)C(=O)c2ccccc2C4=O)cc1 | – | 44.9 µM (inactive) | 31.3 µM (inactive) | > 100 µM (inactive) | 38 µM (inactive) | 30.3 µM (inactive) | 33 µM (inactive) | 32.2 µM (inactive) | 13.6 µM (inactive) | – | 23.1 µM (inactive) | 25 µM (inactive) | 22.4 µM (inactive) | 26.5 µM (inactive) | 3.67 µM (inactive) | 17.2 µM (inactive) | 37 µM (inactive) | – |
| CN(C)CCNC(=O)c1c2ccccc2cc2ccccc12 | 0.473 µM (active) | 32.7 µM (inactive) | 41.3 µM (inactive) | 18.5 µM (inactive) | 16.9 µM (inactive) | 57 µM (inactive) | 34.4 µM (inactive) | 38.1 µM (inactive) | 42.8 µM (inactive) | 12 µM (inactive) | 30.5 µM (inactive) | 20 µM (inactive) | 31.5 µM (inactive) | 8 µM (inactive) | 3.99 µM (inactive) | 32.7 µM (inactive) | 60.4 µM (inactive) | – |
| c1ccc(C2=NN(c3ccccc3)C3(S2)SC(c2ccccc2)(c2ccccc2)c2ccccc23)cc1 (stereo not drawn) | – | > 100 µM (inactive) | > 100 µM (inactive) | > 100 µM (inactive) | > 100 µM (inactive) | > 100 µM (inactive) | > 100 µM (inactive) | > 100 µM (inactive) | > 100 µM (inactive) | > 100 µM (inactive) | > 100 µM (inactive) | > 100 µM (inactive) | > 100 µM (inactive) | > 100 µM (inactive) | > 100 µM (inactive) | > 100 µM (inactive) | > 100 µM (inactive) | – |
| CC(C)c1cccc(C(C)C)c1NC(=O)C(=O)Cc1nc2ccc([N+](=O)[O-])cc2nc1O | – | 39.6 µM (inactive) | – | 69.2 µM (inactive) | > 10 µM (inactive) | > 100 µM (inactive) | 71.6 µM (inactive) | – | 13.5 µM (inactive) | > 100 µM (inactive) | > 100 µM (inactive) | 24.5 µM (inactive) | 58.5 µM (inactive) | 61 µM (inactive) | 74.1 µM (inactive) | 78.3 µM (inactive) | 50.6 µM (inactive) | – |
| Cn1cnc2[nH]c(=O)[nH]c(=S)c21 | > 100 µM (inactive) | > 100 µM (inactive) | > 100 µM (inactive) | > 100 µM (inactive) | > 100 µM (inactive) | > 100 µM (inactive) | > 100 µM (inactive) | > 100 µM (inactive) | > 100 µM (inactive) | > 100 µM (inactive) | > 100 µM (inactive) | > 100 µM (inactive) | > 100 µM (inactive) | > 100 µM (inactive) | > 100 µM (inactive) | > 100 µM (inactive) | > 100 µM (inactive) | – |
| NNC(=O)C(=O)N/N=C(\CCC(=O)Nc1ccc(Cl)cc1)Cc1nc2ccccc2s1 | 11.9 µM (inactive) | 44.7 µM (inactive) | 18.8 µM (inactive) | 32.9 µM (inactive) | 21.8 µM (inactive) | 17.3 µM (inactive) | 35.3 µM (inactive) | > 100 µM (inactive) | 51.1 µM (inactive) | > 100 µM (inactive) | 56.1 µM (inactive) | 22.1 µM (inactive) | 52 µM (inactive) | 28.9 µM (inactive) | 18.5 µM (inactive) | 32.7 µM (inactive) | 45.5 µM (inactive) | – |
| O=C1C(c2ccccc2)=C(c2ccccc2)C(c2ccc(Cc3ccc(C4=C(c5ccccc5)C(=O)C(c5ccccc5)=C4c4ccccc4)cc3)cc2)=C1c1ccccc1 | > 100 µM (inactive) | – | > 100 µM (inactive) | 64.9 µM (inactive) | > 100 µM (inactive) | > 100 µM (inactive) | > 100 µM (inactive) | > 100 µM (inactive) | > 100 µM (inactive) | 50.6 µM (inactive) | 48.6 µM (inactive) | > 100 µM (inactive) | > 100 µM (inactive) | > 100 µM (inactive) | > 100 µM (inactive) | > 100 µM (inactive) | > 100 µM (inactive) | – |
| CCCCCCCCCCCCOC(=N)N1CCOCC1 | 1.56 µM (inactive) | 10.5 µM (inactive) | 9.46 µM (inactive) | 9.35 µM (inactive) | 11 µM (inactive) | 14.1 µM (inactive) | 4.11 µM (inactive) | 16.4 µM (inactive) | 5.53 µM (inactive) | 20.7 µM (inactive) | 16.8 µM (inactive) | 9.77 µM (inactive) | 6.59 µM (inactive) | 9.51 µM (inactive) | 2 µM (inactive) | 0.982 µM (active) | 1.32 µM (inactive) | – |
